Results on eight compounds are retold here after patent US7230132B2, “Aryl N-cyanoguanidines and methods related thereto” (Migenix Corp., priority 2001, dated 2007).

What is called EC50 is the midpoint of the concentration-response curve.

Molecules are shown by their SMILES.

Common to all, as to format: cell-based
Assay [1] has as its system TC28 cells. The assay can be described thus: GAG release from TC28 chondrocytes in polyHEME plates (DMB dye binding assay). To be noted: for % Decrease in GAG Release, IL-1b / % Decrease in GAG Release, NOC-12 / % Decrease in GAG Release, SIN-1: TC28 cells in polyHEME plates, 1 μM compound; for % Decrease in GAG Release, IL-1b: trigger IL-1 10 ng/ml; for % Decrease in GAG Release, NOC-12: trigger NOC-12 25 μM; for % Decrease in GAG Release, SIN-1: trigger SIN-1 10 μM; for EC50: approximate, prevention of GAG release, polyHEME plates, 1 h pretreatment, 72 h. As for the experimental part:
Immortalized TC28 (a.k.a. “[…]”) juvenile rib chondrocytes were provided by Dr. Mary Goldring (Harvard Medical School, Boston, Mass.). The TC28 cells were maintained in monolayer culture in DMEM/Ham's F12 (1:1) and supplemented with 10% FCS, 1% L-glutamine, 100 units/ml Penicillin and […] Streptomycin (Omega Scientific, Tarzana, Ca) and cultured at 37° C. with 5% CO2. Additionally, to further study chondrocytic cells in a more physiologic nonadherent state, in some experiments, TC28 cells were transferred to 6 well plates that had been previously coated for 18 hours at 22° C. with 10% (v/v) in 95% ethanol solution of the cell adhesion inhibitor poly 2-hydroxyethyl methacrylate (polyHEME), followed by two washes in PBS. Complete DMEM/Ham's F12 medium was then added to the wells and the cells studied for up to 72 hours in culture (Folkman J. and Moscona A: Role of cell shape in growth control, Nature 273:345-349, 1978; Reginato A, Iozzo R, Jimenez S: Formation of Nodular Structures Resembling Mature Articular Cartilage in Long-Term Primary Cultures of Human Fetal Epiphyseal Chondrocytes on a Hydrogel Substrate, Arthritis Rheum 37: 1338-1349, 1994). Type II collagen and aggrecan expression were confirmed using RT-PCR, which verified maintenance of chondrocyte phenotype. The chondrocyte protective effects of representative compounds were screened in vitro. The agonists included a donor of nitric oxide (NOC-12), a donor of peroxynitrite (SIN-1), and human recombinant IL-1beta. […] Cytotoxicity was studied using standard LDH release assay, and chondrocyte intracellular ATP was measured by standard luciferase assay. The enhanced release from chondrocytes of glycosaminoglycans (GAG) is a central feature of osteoarthritic chondrocytes, and is known to be stimulated potently by IL-1, which, like NO and peroxynitrite is a major pathogenic factor in osteoarthritis. […] The digestion of the interfering proteins accomplished in this manner allowed the GAG release to be more readily detectable, and the GAG release was quantified by the standard dimethylene blue (DMB) dye binding colorimetric assay. In brief, the cell extract digested from above was combined with 46 μM DMB, 40 mM glycine and 40 mM NaCl (pH 3.0) and immediately read at 525 nm and compared again at a standard curve generated with samples of 1-50 μg/ml chondroitin sulfate (Farndale R, Buttle D, Barrett A: Improved quantitation and discrimination of sulphated glycosaminoglycans by us of dimethylmethylene blue, Biochimica et Biophysica Acta 883: 173-177, 1986; SztrolovicsR, White R, Poole R, Mort J, Roughley P: Resistance of small leucine-rich repeat proteoglycans to proteolytic degradation during interleukin-1 stimulated cartilage catabolism, Biochem J. 339: 571-577, 1999). Collagen production was measured by following ^3H proline incorporation as described in Johnson et al., Arthritis Rheum. 43:11560-70, 2000. […] In these experiments, TC28 cells in polyHEME coated plates were pre-treated for 1 hr followed by exposure to trigger for 72 hrs in the present of Compound (1).

Assay [2] has as its system TC28 cells. Kind of assay: ATP assay (luciferase). To be noted: approximate, prevention of ATP depletion, 1 h pretreatment, 24 h exposure. As for the experimental part: 5×10^5 TC28 cells were plated in a 60 mm dish and allowed to adhere overnight. The cells were then washed with PBS and media was changed to 1% FCS containing media. Compound (1) was added for 1 hr pretreatment of the cells at 37° C. The media was removed and fresh compound+/− the toxic stimuli were added and the cells incubated for 24 hrs at 37° C. The cells were gently scraped into PBS and washed and then the pellets were snap frozen in dry ice. The cells were then extracted in 0.4 N perchloric acid and incubated on ice for 15 min. The cells were centrifuged at 14,000 rpm for 15 min and the supernatant removed. 24% (by volume) of 2.2 M KHCO3 was added to neutralize the solution and the precipitate was pelleted by centrifugation. This supernatant was mixed with the ATP assay mix from the Sigma ATP Luciferase kit and the reaction was counted for 15 sec (with an initial 5 sec delay) in triplicate. Counts were corrected for total DNA in the cell pellet (see Table 3).
(§1) The results of the above Cell Viability and ATP Assays are presented in Table 3, which provides the approximate EC50 values (μM) for prevention of SIN-1 and NOC-12 mediated cell death and ATP depletion by Compound (1). In these assays, TC28 cells were pre-treated for one hour followed by 24-hour exposure to trigger in the presence of Compound (1).

The subject of assay [3] is TC28 cells. The assay can be described thus: Oxygen consumption / mitochondrial respiration in TC28 monolayer culture. To be noted: 500 μM SIN-1 for 4 hr +/- 10 μM compound, FIG. 1. As for the experimental part: In this experiment, TC28 cells were treated with 500 μM SIN-1 for 4 hr+/−10 μM Compound (1): State 3/4—basal respiration rate with no substrate addition; State 4—respiration rate in present of […] oligomycin; State 3U—maximal state 3 uncoupled respiration rate due to addition of the uncoupler CCCP.

Assay [4] has as its system bovine cartilage slices. Kind of assay: Bovine cartilage organ culture, IL-1-mediated GAG release. To be noted: approximate, IL-1 10 ng/ml, 6 h pretreatment, 24 h, read-out: EC50 GAG Release, IL-1 Trigger. The procedure: (§2) Mature bovine knees were obtained and cartilage from the femoral condyles and patellar groove was removed in full thickness slices. (1–3 mm). Circular cores (6–7 mm in diameter) were punched out of the tissue. The cores were washed twice with media (1% FCS, 1% P/S, 1% glutamine containing DMEM high glucose) and then placed in 96 wells plates. The slices were incubated in media (as above) at 37° C. for 48 hrs to allow for recovery from the isolation process. After the recovery period, the media was removed and fresh media with Compound (1) was added to the slices for a pretreatment period of 6 hrs. Then the media was removed and fresh Compound (1)+/− IL-1 (at 10 ng/ml) was added and incubated at 37° C. for 24 hrs. The conditioned media was collected and the GAG and NO release were analyzed. Finally the slices were weighed to correct for slight variations in size or thickness. The results of this experiment are presented in Table 5, which provides the approximate EC50 values (μM) for prevention of IL-1-mediated GAG and NO release in bovine cartilage slices by Compound (1).

Assay [5] has as its system TC28 cells. The assay can be described thus: Cell viability assay (LDH release, CytoTox 96). To be noted: approximate, prevention of cell death, 1 h pretreatment, 24 h exposure. As for the experimental part: 1×10^5 TC28 cells (DMEM/F12 media with 10% FCS, 1% glutamine, 1% P/S) were plated each well in a 96 well plate and allowed to adhere overnight. The cells were washed once with PBS and media changed to contain only 1% FCS. Compound (1) at various concentrations was added to the cells for a pretreatment of 1 hr. The media was removed and fresh compound+/− the toxic stimuli were added. The cells were then incubated for 24 hrs at 37° C. Following the incubation the media was collected and used for analysis in the CytTox 96 Nonradioactive Cytotoxicity Assay (Promega, Madison, Wis.). Briefly the LDH release from the dead cells was quantified in a 30 min enzymatic reaction that results in the conversion of a tetrazolium […] to a red formazan product. The results were then expressed as the percent of cells dead relative to the release of LDH by the control cells.
as §1
Background: Release of lactate dehydrogenase indicates damage to the cell membrane.

The test system of assay [6] is bovine cartilage slices. The assay can be described thus: Bovine cartilage organ culture, IL-1-mediated NO release. Conditions: approximate, IL-1 10 ng/ml, 6 h pretreatment, 24 h, read-out: EC50 NO Release, IL-1 Trigger. The procedure: as §2
Assay [7] deals with TC28 cells. Kind of assay: Collagen synthesis (3H proline incorporation). Conditions: approximate, prevention of inhibition of collagen synthesis, polyHEME plates, 1 h pretreatment, 72 h. As for the experimental part:
Collagen production was measured by following ^3H proline incorporation as described in Johnson et al., Arthritis Rheum. 43:11560–70, 2000. The results are presented in Table 4, which provides the approximate EC50 values (μM) for prevention of SIN-1, NOC-12 and IL-1 mediated GAG release (via Example 3) and inhibition of collagen synthesis (via Johnson et al.) in chondrocytes by Compound (1). In these experiments, TC28 cells in polyHEME coated plates were pre-treated for 1 hr followed by exposure to trigger for 72 hrs in the present of Compound (1).

On to `COc1ccc(NC(N)=NC#N)cc1Cl` [(2)], for which, in the assay on TC28 cells [1], the “% Decrease in GAG Release, IL-1b” value came to 40.9%; the “% Decrease in GAG Release, NOC-12” value turned out to be 50.1%; the “% Decrease in GAG Release, SIN-1” value is recorded as 23.6%.

As for `N#CN=C(N)Nc1ccc(N2CCOCC2)cc1` [(3)], in the assay on TC28 cells [1], the “% Decrease in GAG Release, IL-1b” value stood at 29.1%; the “% Decrease in GAG Release, NOC-12” value turned out to be 28.0%; the “% Decrease in GAG Release, SIN-1” value is on record as 21.9%.

As for `COc1cc(NC(N)=NC#N)cc(OC)c1OC` [(4)], in the assay with TC28 cells [1], the “% Decrease in GAG Release, IL-1b” value is 1.5%; the “% Decrease in GAG Release, NOC-12” value was 17.2%; the “% Decrease in GAG Release, SIN-1” value came to 11.3%.

With `N#CN=C(N)Nc1cccc(C(F)(F)F)c1` [(5)], in the assay on TC28 cells [1], the “% Decrease in GAG Release, IL-1b” value came to 30.7%; the “% Decrease in GAG Release, NOC-12” value stood at 14.2%; the “% Decrease in GAG Release, SIN-1” value is 35.0%.

As for `Cc1ccc(NC(N)=NC#N)c(C)c1` [(6)], in the assay with TC28 cells [1], the “% Decrease in GAG Release, IL-1b” value amounted to 2.4%; the “% Decrease in GAG Release, NOC-12” value turned out to be 11.0%; the “% Decrease in GAG Release, SIN-1” value is recorded as 1.6%.

Consider `Cc1cc(C)cc(NC(N)=NC#N)c1` [(7)], for which, in the assay on TC28 cells [1], the “% Decrease in GAG Release, IL-1b” value came out at 56.6%; the “% Decrease in GAG Release, NOC-12” value is recorded as 46.2%; the “% Decrease in GAG Release, SIN-1” value came out at 42.3%.

On to `Cc1cc(Cl)ccc1NC(N)=NC#N` [(8)], for which, in the assay on TC28 cells [1], the “% Decrease in GAG Release, IL-1b” value came to 43.8%; the “% Decrease in GAG Release, NOC-12” value is 32.3%; the “% Decrease in GAG Release, SIN-1” value is given as 55.2%.

Turning to `Cc1cc(O)ccc1NC(N)=NC#N` [Compound (1)], the 50% effective concentration (EC50) was ~100 nM in the assay on TC28 cells [2] (NOC-12 challenge 250 μM, read-out: EC50 ATP Depletion, trigger Noc12); ~100 nM in the assay on TC28 cells [2] (SIN-1 challenge 100 μM, read-out: EC50 ATP Depletion, trigger Sin-1); ~100 nM in the assay on TC28 cells [1] (IL-1 challenge 10 ng/ml, read-out: EC50 GAG Release, trigger IL-1); ~100 nM in the assay with TC28 cells [1] (NOC-12 challenge 25 μM, read-out: EC50 GAG Release, trigger Noc12); ~100 nM with TC28 cells [1] (SIN-1 challenge 10 μM, read-out: EC50 GAG Release, trigger Sin-1); ~10000 nM with bovine cartilage slices [4]. In addition, the EC50 in the assay with TC28 cells [5] (NOC-12 challenge 250 μM, read-out: EC50 Cell Viability, trigger Noc12) was ~10 nM; in the assay on TC28 cells [5] (SIN-1 challenge 100 μM, read-out: EC50 Cell Viability, trigger Sin-1), ~10 nM; in the assay on bovine cartilage slices [6], ~10000 nM; in the assay with TC28 cells [7] (IL-1 challenge 10 ng/ml, read-out: EC50 Collagen, trigger IL-1) it was ~1000 nM; in the assay with TC28 cells [7] (NOC-12 challenge 25 μM, read-out: EC50 Collagen, trigger Noc12) it was ~1000 nM; in the assay on TC28 cells [7] (SIN-1 challenge 10 μM, read-out: EC50 Collagen, trigger Sin-1), ~1000 nM. In the assay with TC28 cells [1], the “% Decrease in GAG Release, IL-1b” value worked out at 36.8%. Besides, the “% Decrease in GAG Release, NOC-12” value in the assay on TC28 cells [1] was 27.4%. In addition, the “% Decrease in GAG Release, SIN-1” value in the assay with TC28 cells [1] is 47.7%. Moreover, the “SIN-1-mediated inhibition of mitochondrial respiration” value in the assay with TC28 cells [3] is listed as “blocked SIN-1-mediated inhibition of mitochondrial respiration”.
